Assay results reported in ChEMBL document CHEMBL4414562, “Discovery of the First in Vivo Active Inhibitors of the Soluble Epoxide Hydrolase Phosphatase Domain” (J Med Chem, 2019).
Activity calls are given as the source filed them. The rule behind the calls is not given here.

Key:
Homo sapiens [1] = species: Homo sapiens; assay: Induction of stabilization of hexa-His-tagged human soluble epoxide hydrolase N-terminal phosphatase domain expressed in Escherichia coli BL21(DE3) at 50 uM by differential scanning fluorimetry
Homo sapiens [2] = species: Homo sapiens; assay: Inhibition of soluble epoxide hydrolase N-terminal phosphatase domain in human PBMC assessed as reduction in MAG/LPA ratio at 30 uM incubated for 24 hrs by LC-MS/MS analysis
[3] = molecular target: T1, Bifunctional epoxide hydrolase 2 (Rattus norvegicus, UniProt P80299); assay: Inhibition of phosphatase activity of full length rat soluble epoxide hydrolase pre-incubated for 30 mins before FDP substrate addition by fluorescence based assay
T1 sequence (P80299 whole entry): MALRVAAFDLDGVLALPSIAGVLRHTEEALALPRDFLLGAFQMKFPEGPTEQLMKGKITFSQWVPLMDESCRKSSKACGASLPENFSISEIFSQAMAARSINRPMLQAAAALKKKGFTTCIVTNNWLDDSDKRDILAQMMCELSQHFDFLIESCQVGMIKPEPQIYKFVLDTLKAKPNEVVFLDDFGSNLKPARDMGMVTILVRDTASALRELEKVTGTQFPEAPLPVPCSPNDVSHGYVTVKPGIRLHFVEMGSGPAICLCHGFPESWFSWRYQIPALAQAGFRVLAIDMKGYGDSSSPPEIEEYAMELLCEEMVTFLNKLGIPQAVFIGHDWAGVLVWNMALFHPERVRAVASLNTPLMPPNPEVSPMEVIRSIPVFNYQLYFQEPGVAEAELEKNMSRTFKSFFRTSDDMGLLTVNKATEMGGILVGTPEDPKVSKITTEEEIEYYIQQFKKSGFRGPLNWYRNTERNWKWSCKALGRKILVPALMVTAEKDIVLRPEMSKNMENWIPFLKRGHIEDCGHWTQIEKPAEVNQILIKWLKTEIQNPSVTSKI

SMILES	Activity (Homo sapiens [1])	inhibition (Homo sapiens [2])	IC50 [3]
O=C(O)CCCc1nc(-c2ccc(Cl)c(Cl)c2)c(-c2ccccc2)o1	Active	Active	–
O=C(O)CCc1nc(-c2ccccc2)c(-c2ccccc2)o1 [OXAPROZIN]	–	–	62.5 µM
